Calls of active or inactive are those of the source. The rule behind the calls is not given here.
These compounds were tested on HUVEC (assay: Inhibition of TNFalpha-induced COX2 gene expression in HUVEC at 10 uM). Conditions: Homo sapiens.
Assay type: functional, cell-based
Cn1c(-c2cn([C@@H]3[C@@H](O)[C@H](O)[C@@H](CO)O[C@@H]3O)nn2)nc(-c2ccc(F)cc2)c1-c1ccncc1 was tested, and the inhibition was “Active”. For Cn1c(-c2cn([C@H]3CCNC[C@@H]3F)nn2)nc(-c2ccc(F)cc2)c1-c1ccncc1, the inhibition was “Active”. For C[S+]([O-])c1ccc(-c2nc(-c3ccc(F)cc3)c(-c3ccncc3)[nH]2)cc1 (centres undefined), the inhibition was “Active”. With Cn1cnc(-c2ccc(F)cc2)c1-c1ccncc1 the inhibition was “Active”.

The compounds below were run against Mitogen-activated protein kinase 14 (Homo sapiens, UniProt Q16539) (assay: Inhibition of p38a MAPK (unknown origin) by radiometric assay). Conditions: not given.
Sequence of Mitogen-activated protein kinase 14 (Q16539 whole entry): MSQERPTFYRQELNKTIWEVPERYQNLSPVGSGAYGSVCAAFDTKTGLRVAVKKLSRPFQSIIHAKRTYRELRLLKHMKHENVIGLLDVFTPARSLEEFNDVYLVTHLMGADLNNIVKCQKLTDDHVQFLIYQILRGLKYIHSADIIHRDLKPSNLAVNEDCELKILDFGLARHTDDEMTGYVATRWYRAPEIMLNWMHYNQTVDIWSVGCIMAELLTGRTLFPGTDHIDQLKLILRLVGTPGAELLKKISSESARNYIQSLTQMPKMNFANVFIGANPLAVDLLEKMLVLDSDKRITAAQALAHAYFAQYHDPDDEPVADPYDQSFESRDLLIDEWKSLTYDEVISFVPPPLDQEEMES
Cn1c(-c2cn(-c3cccc(C(=O)O)c3)nn2)nc(-c2ccc(F)cc2)c1-c1ccncc1 [listing 1 of 2 here] gave an IC50 of 185 nM. In the case of CCOC(=O)Cn1cc(-c2nc(-c3ccc(F)cc3)c(-c3ccncc3)n2C)nn1, the IC50 is reported as 1870 nM. Cn1c(-c2cn(C3O[C@H](C(=O)O)[C@@H](O)[C@H](O)[C@H]3O)nn2)nc(-c2ccc(F)cc2)c1-c1ccncc1 (some centres undefined) was tested, and the IC50 was 590 nM. With Cn1c(-c2cn([C@@H]3[C@@H](O)[C@H](O)[C@@H](CO)O[C@@H]3O)nn2)nc(-c2ccc(F)cc2)c1-c1ccncc1 the IC50 was 710 nM. Cn1c(-c2cn(CC(=O)N3CCN(CCO)CC3)nn2)nc(-c2ccc(F)cc2)c1-c1ccncc1 showed an IC50 of 3800 nM. Compound Cn1c(-c2cn([C@@H](CC(=O)O)C(=O)O)nn2)nc(-c2ccc(F)cc2)c1-c1ccncc1 has an IC50 of 2300 nM. In the case of Cn1c(-c2cn(-c3cccc(C(=O)NCCCO)c3)nn2)nc(-c2ccc(F)cc2)c1-c1ccncc1, the IC50 is reported as 290 nM. In the case of CC(=O)OC[C@H]1O[C@H](OC(C)=O)[C@H](n2cc(-c3nc(-c4ccc(F)cc4)c(-c4ccncc4)n3C)nn2)[C@@H](OC(C)=O)[C@@H]1OC(C)=O, the IC50 is reported as > 100000 nM. In the case of Cn1c(-c2cn(CCOP(=O)(O)O)nn2)nc(-c2ccc(F)cc2)c1-c1ccncc1, the IC50 is reported as 250 nM. In the case of Cn1c(-c2cn([C@H]3CCNC[C@@H]3F)nn2)nc(-c2ccc(F)cc2)c1-c1ccncc1, the IC50 is reported as 96 nM. Cn1c(-c2cn(CC(=O)O)nn2)nc(-c2ccc(F)cc2)c1-c1ccncc1 [listing 1 of 2 here] was tested, and the IC50 was 430 nM. For O=C(O)c1ccccc1-n1cc(-c2nc(-c3ccc(F)cc3)c(-c3ccncc3)o2)nn1, the IC50 was 6510 nM. O=C(O)c1ccc(-n2cc(-c3nc(-c4ccc(F)cc4)c(-c4ccncc4)o3)nn2)cc1 was tested, and the IC50 was 190 nM. O=C(c1ccc(-n2cc(-c3nc(-c4ccc(F)cc4)c(-c4ccncc4)o3)nn2)cc1)N1CCN(CCO)CC1 was tested, and the IC50 was 2400 nM. In the case of Cn1c(-c2cn(C[C@H]3O[C@@H](O)[C@H](O)[C@@H](O)[C@@H]3O)nn2)nc(-c2ccc(F)cc2)c1-c1ccncc1, the IC50 is reported as 400 nM. CN(C)c1ccc(-n2cc(-c3nc(-c4ccc(F)cc4)c(-c4ccncc4)o3)nn2)cc1 was tested, and the IC50 was 19500 nM. For Cn1c(C#CCO)nc(-c2ccc(F)cc2)c1-c1ccncc1, the IC50 was 460 nM. Cn1c(-c2cn(CCP(=O)(O)O)nn2)nc(-c2ccc(F)cc2)c1-c1ccncc1 was tested, and the IC50 was 350 nM. O=C(O)[C@H]1OC(n2cc(-c3nc(-c4ccc(F)cc4)c(-c4ccncc4)o3)nn2)[C@H](O)[C@@H](O)[C@@H]1O (some centres undefined) showed an IC50 of 1170 nM. Work on OC[C@H]1O[C@H](O)[C@H](n2cc(-c3nc(-c4ccc(F)cc4)c(-c4ccncc4)o3)nn2)[C@@H](O)[C@@H]1O yielded an IC50 of 1190 nM. For C[C@@H](C(=O)O)n1cc(-c2nc(-c3ccc(F)cc3)c(-c3ccncc3)n2C)nn1, the IC50 was 1440 nM. CCOC(=O)Cn1nncc1-c1nc(-c2ccc(F)cc2)c(-c2ccncc2)n1C gave an IC50 of 56000 nM. Cn1cnc(-c2ccc(F)cc2)c1-c1ccncc1 gave an IC50 of 430 nM. Cn1c(-c2c[nH]nn2)nc(-c2ccc(F)cc2)c1-c1ccncc1 showed an IC50 of 140 nM. For CN(C)c1ccc(-n2cc(-c3nc(-c4ccc(F)cc4)c(-c4ccncc4)n3C)nn2)cc1, the IC50 was 1400 nM. With Cn1c(-c2cn(CCOCCOCCOCCO)nn2)nc(-c2ccc(F)cc2)c1-c1ccncc1 the IC50 was 11200 nM. Cn1c(-c2cn(CCO)nn2)nc(-c2ccc(F)cc2)c1-c1ccncc1 was tested, and the IC50 was 500 nM. Compound Cn1c(-c2cn(CCOCCOCCOCCN)nn2)nc(-c2ccc(F)cc2)c1-c1ccncc1 has an IC50 of 5180 nM. Cn1c(-c2cn(-c3ccc(C(=O)O)cc3)nn2)nc(-c2ccc(F)cc2)c1-c1ccncc1 showed an IC50 of 140 nM. Work on Cn1c(-c2cn(-c3cccc(C(=O)O)c3)nn2)nc(-c2ccc(F)cc2)c1-c1ccncc1 [listing 2 of 2 here] yielded an IC50 of 91 nM. In the case of OCCOCCOCCOCCOCCOCCOCCOCCn1cc(-c2nc(-c3ccc(F)cc3)c(-c3ccncc3)o2)nn1, the IC50 is reported as 23500 nM. For CCOP(=O)(CCn1cc(-c2nc(-c3ccc(F)cc3)c(-c3ccncc3)n2C)nn1)OCC, the IC50 was > 100000 nM. C[C@@H](C(=O)O)n1cc(-c2nc(-c3ccc(F)cc3)c(-c3ccncc3)o2)nn1 showed an IC50 of 11400 nM. Cn1c(-c2cn(CC(=O)O)nn2)nc(-c2ccc(F)cc2)c1-c1ccncc1 [listing 2 of 2 here] gave an IC50 of 740 nM. C#Cc1nc(-c2ccc(F)cc2)c(-c2ccncc2)n1C showed an IC50 of 730 nM. C[C@H](Nc1nccc(-c2c(-c3ccc(F)cc3)nc3nc(N)ccn23)n1)c1ccccc1 showed an IC50 of 6 nM. In the case of Cn1c(-c2cn(-c3ccccc3O)nn2)nc(-c2ccc(F)cc2)c1-c1ccncc1, the IC50 is reported as 1590 nM. For Cn1c(-c2cn(C(C)(C)C(=O)O)nn2)nc(-c2ccc(F)cc2)c1-c1ccncc1, the IC50 was 1490 nM. Compound C#Cc1nc(-c2ccc(F)cc2)c(-c2ccncc2)o1 has an IC50 of 1790 nM. For COC(=O)c1cccc(-n2cc(-c3nc(-c4ccc(F)cc4)c(-c4ccncc4)n3C)nn2)c1, the IC50 was 990 nM. Fc1ccc(-c2nc(-c3cn(Cc4ccccc4)nn3)oc2-c2ccncc2)cc1 showed an IC50 of 158000 nM. Work on O[C@@H]1[C@@H](O)[C@H](O)O[C@H](Cn2cc(-c3nc(-c4ccc(F)cc4)c(-c4ccncc4)o3)nn2)[C@H]1O yielded an IC50 of 5730 nM. Cn1c(-c2cn(CC(=O)NCCO)nn2)nc(-c2ccc(F)cc2)c1-c1ccncc1 showed an IC50 of 890 nM. In the case of Cn1c(-c2cn(CCOCCOCCOCCOCCOCCOCCOCCO)nn2)nc(-c2ccc(F)cc2)c1-c1ccncc1, the IC50 is reported as 11600 nM. Work on Oc1ccccc1-n1cc(-c2nc(-c3ccc(F)cc3)c(-c3ccncc3)o2)nn1 yielded an IC50 of 2170 nM. In the case of CC(=O)OC[C@H]1O[C@H](OC(C)=O)[C@H](n2cc(-c3nc(-c4ccc(F)cc4)c(-c4ccncc4)o3)nn2)[C@@H](OC(C)=O)[C@@H]1OC(C)=O, the IC50 is reported as > 100000 nM. Work on Fc1ccc(-c2nc(-c3c[nH]nn3)oc2-c2ccncc2)cc1 yielded an IC50 of 380 nM. With O=C(O)Cn1cc(-c2nc(-c3ccc(F)cc3)c(-c3ccncc3)o2)nn1 the IC50 was 3200 nM. In the case of Cn1c(-c2cnnn2CC(=O)O)nc(-c2ccc(F)cc2)c1-c1ccncc1, the IC50 is reported as 4200 nM. For OCCOCCOCCOCCn1cc(-c2nc(-c3ccc(F)cc3)c(-c3ccncc3)o2)nn1, the IC50 was 12500 nM. Work on Cn1c(-c2cn(-c3ccccc3C(=O)O)nn2)nc(-c2ccc(F)cc2)c1-c1ccncc1 yielded an IC50 of 1530 nM.

The compounds below were run on HUVEC (assay: Inhibition of TNFalpha-induced IL-6 gene expression in HUVEC at 10 uM). Conditions: Homo sapiens.
Assay type: functional, cell-based
For Cn1c(-c2cn([C@@H]3[C@@H](O)[C@H](O)[C@@H](CO)O[C@@H]3O)nn2)nc(-c2ccc(F)cc2)c1-c1ccncc1, the inhibition was “Active”. For Cn1c(-c2cn([C@H]3CCNC[C@@H]3F)nn2)nc(-c2ccc(F)cc2)c1-c1ccncc1, the inhibition was “Active”. In the case of C[S+]([O-])c1ccc(-c2nc(-c3ccc(F)cc3)c(-c3ccncc3)[nH]2)cc1 (centres undefined), the inhibition is reported as “Active”. In the case of Cn1cnc(-c2ccc(F)cc2)c1-c1ccncc1, the inhibition is reported as “Active”.
